Test results reported in PMC9378504 (Journal of medicinal chemistry, 2022).

Columns and labels:
NSD2 [1] = target: T1, NSD2 (Homo sapiens, UniProt O96028); assay: Western blotting of NSD2 protein level in 293FT cells; assay type: cell-based
T1 sequence (O96028 1-1365): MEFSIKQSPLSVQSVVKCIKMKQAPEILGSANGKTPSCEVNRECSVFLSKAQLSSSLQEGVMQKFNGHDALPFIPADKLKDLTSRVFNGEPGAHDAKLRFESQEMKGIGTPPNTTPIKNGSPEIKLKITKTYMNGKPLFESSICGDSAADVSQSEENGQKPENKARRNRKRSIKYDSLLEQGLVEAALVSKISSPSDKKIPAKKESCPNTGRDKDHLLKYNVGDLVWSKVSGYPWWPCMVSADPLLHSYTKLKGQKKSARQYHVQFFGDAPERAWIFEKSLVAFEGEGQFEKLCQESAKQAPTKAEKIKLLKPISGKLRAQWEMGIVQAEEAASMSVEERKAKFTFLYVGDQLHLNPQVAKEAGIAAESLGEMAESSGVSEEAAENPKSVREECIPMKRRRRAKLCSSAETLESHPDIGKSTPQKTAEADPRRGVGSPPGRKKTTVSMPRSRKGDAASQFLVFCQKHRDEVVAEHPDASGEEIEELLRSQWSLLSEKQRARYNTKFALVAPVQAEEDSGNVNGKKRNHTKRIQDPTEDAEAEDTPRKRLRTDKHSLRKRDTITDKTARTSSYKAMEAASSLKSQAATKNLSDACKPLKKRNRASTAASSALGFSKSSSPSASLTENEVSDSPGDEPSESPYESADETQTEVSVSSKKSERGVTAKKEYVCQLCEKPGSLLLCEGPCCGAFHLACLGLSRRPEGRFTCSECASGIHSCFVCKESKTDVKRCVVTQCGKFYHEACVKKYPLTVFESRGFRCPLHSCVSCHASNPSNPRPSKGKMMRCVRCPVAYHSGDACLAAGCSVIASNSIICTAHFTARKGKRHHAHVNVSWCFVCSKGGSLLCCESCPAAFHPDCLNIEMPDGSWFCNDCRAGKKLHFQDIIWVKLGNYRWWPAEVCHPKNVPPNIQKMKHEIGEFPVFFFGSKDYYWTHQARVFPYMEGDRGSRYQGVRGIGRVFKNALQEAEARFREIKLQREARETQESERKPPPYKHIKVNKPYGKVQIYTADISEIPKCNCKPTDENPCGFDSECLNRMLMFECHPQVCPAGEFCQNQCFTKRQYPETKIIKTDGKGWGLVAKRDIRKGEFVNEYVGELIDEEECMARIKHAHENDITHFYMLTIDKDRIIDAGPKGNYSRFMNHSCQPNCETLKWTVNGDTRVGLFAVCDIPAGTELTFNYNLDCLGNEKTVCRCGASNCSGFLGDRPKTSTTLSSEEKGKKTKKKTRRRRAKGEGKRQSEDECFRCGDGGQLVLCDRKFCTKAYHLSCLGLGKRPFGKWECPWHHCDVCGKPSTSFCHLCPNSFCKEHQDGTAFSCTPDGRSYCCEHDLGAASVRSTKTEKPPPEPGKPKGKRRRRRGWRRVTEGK

NSD2 [2] = target: T1, NSD2; assay: Western blotting of NSD2 protein level in CRBN KO 293FT cells; assay type: cell-based; settings: 293FT cells with CRISPR-Cas9-mediated KO of CRBN, range of concentrations, 48 h
IKZF3 [3] = target: T2, IKZF3 (Homo sapiens, UniProt Q96SW2+Q9UKT9); assay: Western blotting of IKZF3 protein level in 293FT cells; assay type: cell-based; settings: for IKZF3 protein level after pretreatment: 293FT cells, then 5 μM for 6 h
T2 sequence (Q9UKT9 whole entry): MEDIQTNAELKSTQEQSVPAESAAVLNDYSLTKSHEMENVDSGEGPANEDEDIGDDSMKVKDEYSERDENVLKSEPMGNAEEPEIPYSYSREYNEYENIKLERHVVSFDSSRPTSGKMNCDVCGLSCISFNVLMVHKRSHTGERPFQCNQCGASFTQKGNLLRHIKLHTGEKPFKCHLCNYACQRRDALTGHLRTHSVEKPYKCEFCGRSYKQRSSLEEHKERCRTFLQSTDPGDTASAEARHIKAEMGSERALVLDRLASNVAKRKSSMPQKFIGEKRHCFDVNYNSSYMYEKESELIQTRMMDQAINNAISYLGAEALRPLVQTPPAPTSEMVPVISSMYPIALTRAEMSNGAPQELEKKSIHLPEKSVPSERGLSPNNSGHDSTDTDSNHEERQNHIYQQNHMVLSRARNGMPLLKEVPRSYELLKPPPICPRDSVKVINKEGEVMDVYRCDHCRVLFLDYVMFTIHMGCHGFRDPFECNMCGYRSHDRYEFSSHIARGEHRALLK
T2 sequence (Q96SW2 whole entry): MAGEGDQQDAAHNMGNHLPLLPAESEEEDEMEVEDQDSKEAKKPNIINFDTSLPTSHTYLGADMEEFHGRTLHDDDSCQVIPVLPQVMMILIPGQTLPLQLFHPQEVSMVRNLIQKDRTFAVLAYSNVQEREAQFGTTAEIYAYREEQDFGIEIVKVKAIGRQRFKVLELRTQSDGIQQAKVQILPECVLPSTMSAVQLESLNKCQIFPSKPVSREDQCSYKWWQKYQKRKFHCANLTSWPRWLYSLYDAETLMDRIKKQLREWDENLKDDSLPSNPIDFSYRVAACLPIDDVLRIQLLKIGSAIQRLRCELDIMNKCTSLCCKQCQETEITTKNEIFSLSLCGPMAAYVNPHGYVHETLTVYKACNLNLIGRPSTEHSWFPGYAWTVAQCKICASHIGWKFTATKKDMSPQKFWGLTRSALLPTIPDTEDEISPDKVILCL
T2 sequence (Q16531 whole entry partner): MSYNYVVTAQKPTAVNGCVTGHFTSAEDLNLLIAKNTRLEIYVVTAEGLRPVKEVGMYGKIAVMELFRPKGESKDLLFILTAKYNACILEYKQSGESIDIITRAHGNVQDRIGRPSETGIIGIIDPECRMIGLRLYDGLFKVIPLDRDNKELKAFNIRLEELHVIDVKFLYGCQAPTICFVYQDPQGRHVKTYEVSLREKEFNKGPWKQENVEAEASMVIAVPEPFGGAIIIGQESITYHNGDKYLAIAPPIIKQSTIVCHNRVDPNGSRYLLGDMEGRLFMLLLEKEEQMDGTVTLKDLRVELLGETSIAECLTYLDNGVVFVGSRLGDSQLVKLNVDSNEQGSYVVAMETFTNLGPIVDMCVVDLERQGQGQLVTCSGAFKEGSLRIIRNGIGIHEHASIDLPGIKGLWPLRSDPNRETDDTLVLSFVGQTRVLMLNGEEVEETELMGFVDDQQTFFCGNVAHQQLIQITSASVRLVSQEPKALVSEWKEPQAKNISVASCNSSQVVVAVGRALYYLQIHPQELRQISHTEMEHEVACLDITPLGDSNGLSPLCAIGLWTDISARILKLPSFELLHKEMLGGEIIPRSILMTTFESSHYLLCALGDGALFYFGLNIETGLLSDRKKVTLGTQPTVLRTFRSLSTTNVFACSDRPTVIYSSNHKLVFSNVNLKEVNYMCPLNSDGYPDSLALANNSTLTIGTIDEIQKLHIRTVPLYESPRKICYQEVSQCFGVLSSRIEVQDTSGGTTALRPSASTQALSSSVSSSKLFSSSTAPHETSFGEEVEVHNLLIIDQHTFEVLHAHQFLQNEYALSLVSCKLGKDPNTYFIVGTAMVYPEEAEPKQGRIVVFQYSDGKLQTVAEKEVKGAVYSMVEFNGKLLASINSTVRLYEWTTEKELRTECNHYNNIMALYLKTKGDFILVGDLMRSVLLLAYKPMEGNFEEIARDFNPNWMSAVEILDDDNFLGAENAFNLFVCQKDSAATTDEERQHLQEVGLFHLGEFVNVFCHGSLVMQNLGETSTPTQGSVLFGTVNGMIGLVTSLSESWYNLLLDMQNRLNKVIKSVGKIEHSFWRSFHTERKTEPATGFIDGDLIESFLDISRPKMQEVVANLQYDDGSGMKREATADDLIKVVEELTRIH

IKZF3 [4] = target: T2, IKZF3; assay: Western blotting of IKZF3 protein level in CRBN KO 293FT cells; assay type: cell-based; settings: 293FT cells with CRISPR-Cas9-mediated KO of CRBN, range of concentrations, 48 h
NSD2 [5] = target: T1, NSD2; assay: Western blotting of NSD2 protein level in KMS11 cells; assay type: cell-based; settings: 2.5 μM, 72 h
NSD2 [6] = target: T1, NSD2; assay: Western blotting of NSD2 protein level in H929 cells; assay type: cell-based; settings: 2.5 μM, 72 h
GSPT1 [7] = assay: Western blotting of GSPT1 protein level in KMS11 cells; assay type: cell-based, Human; settings: 2.5 μM, 72 h
GSPT1 [8] = assay: Western blotting of GSPT1 protein level in H929 cells; assay type: cell-based, Human; settings: 2.5 μM, 72 h
IKZF1 [9] = target: T3, IKZF1 (Homo sapiens, UniProt Q13422+Q96SW2); assay: Western blotting of IKZF1 protein level in KMS11 cells; assay type: cell-based; settings: for IKZF1 degradation after pretreatment: then 5 μM for 6 h
T3 sequence (Q13422 whole entry): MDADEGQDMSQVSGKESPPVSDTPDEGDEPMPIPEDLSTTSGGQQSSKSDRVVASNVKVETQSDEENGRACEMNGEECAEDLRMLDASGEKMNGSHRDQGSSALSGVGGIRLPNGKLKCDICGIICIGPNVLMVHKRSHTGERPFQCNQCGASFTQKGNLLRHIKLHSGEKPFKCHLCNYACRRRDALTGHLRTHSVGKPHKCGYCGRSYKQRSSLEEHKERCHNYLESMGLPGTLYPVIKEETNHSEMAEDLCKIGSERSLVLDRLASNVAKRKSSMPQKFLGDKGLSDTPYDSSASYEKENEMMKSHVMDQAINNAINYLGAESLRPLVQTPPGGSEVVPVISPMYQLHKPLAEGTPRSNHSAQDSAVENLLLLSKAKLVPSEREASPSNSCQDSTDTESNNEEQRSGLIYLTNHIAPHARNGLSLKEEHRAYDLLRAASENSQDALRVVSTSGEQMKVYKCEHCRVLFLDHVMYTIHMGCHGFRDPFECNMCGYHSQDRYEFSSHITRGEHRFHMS
T3 sequence (Q96SW2 whole entry): as the sequence (Q96SW2 whole entry) above
T3 sequence (Q16531 whole entry partner): as the sequence (Q16531 whole entry partner) above

IKZF1 [10] = target: T3, IKZF1; assay: Western blotting of IKZF1 protein level in H929 cells; assay type: cell-based; settings: 2.5 μM, 72 h
IKZF3 [11] = target: T2, IKZF3; assay: Western blotting of IKZF3 protein level in KMS11 cells; assay type: cell-based; settings: then 5 μM for 6 h
[12] = test system: 20 protein lysine and arginine methyltransferases including NSD1/2/3; assay: Selectivity assay, radioisotope-based filter binding; assay type: biochemical, human; settings: 10 μM, in duplicate, SAM 1 μM
KMS11 cells = assay: Cell growth inhibition assay in KMS11 cells; assay type: cell-based, Human; settings: 2.5 μM, 8 days
H929 cells = assay: Cell growth inhibition assay in H929 cells; assay type: cell-based, Human; settings: 2.5 μM, 8 days
Mouse PK study = assay type: in vivo; settings: single IP 50 mg/kg, male Swiss albino mice
[13] = WT 293FT cells, range of concentrations, 48 h
[14] = pretreated with 10 nM MLN9708 for 2 h
[15] = pretreated with 0.5 μM MLN4924 for 2 h

NSD2 protein level on cotreatment (NSD2 [1]; 293FT cells, 5 μM for 48 h, cotreated with 5 μM UNC6934 during the last 6 h): significantly rescued
NSD2 degradation, time course (NSD2 [1]; 293FT cells, 5 μM, 36 h): some NSD2 degradation
NSD2 degradation, time course (NSD2 [1]; 293FT cells, 5 μM, 48 h): significant degradation
NSD2 degradation, time course (NSD2 [1]; 293FT cells, 5 μM, 72 h): maximum degradation effect
NSD2 protein level after washout (NSD2 [1]; 293FT cells, 5 μM, then washout, 48 h post washout): fully recovered
NSD2 degradation (NSD2 [5]): effectively degraded NSD2
NSD2 degradation (NSD2 [6]): effectively degraded NSD2
IKZF1 protein level (IKZF1 [9]; 2.5 μM, 72 h): clearly reduced the IKZF1 protein level
IKZF1 protein level (IKZF1 [10]): clearly reduced the IKZF1 protein level
clinical signs (Mouse PK study; PK study): no clinical signs were observed
maximum plasma concentration (Mouse PK study; mean ± SD from three mice): 1.35 ± 0.08 µM
Structure (SMILES): O=C(CNc1cccc2c1C(=O)N(C1CCC(=O)NC1=O)C2=O)NCCCOc1ccc(NC(=O)c2ccc(CN(C(=O)c3ccc4c(c3)OCC(=O)N4)C3CC3)cc2)nc1 (stereo not shown) [Compound 9, N-Cyclopropyl-N-(4-((5-(3-(2-((2-(2,6-dioxopiperidin-3-yl)-1,3-dioxoisoindolin-4-yl)amino)acetamido)propoxy)pyridin-2-yl)-carbamoyl)benzyl)-3-oxo-3,4-dihydro-2H-benzo[b][1,4]oxazine-7-carboxamide]
NSD2 protein level (NSD2 [1]; 293FT cells, 2.5 and 10 μM, 48 h, Figure 2): effectively induced degradation of NSD2 at both 2.5 and 10 μM without a hook effect
NSD2 degradation (NSD2 [1]; [13]): clear degradation of NSD2 and IKZF3 was observed
NSD2 degradation (NSD2 [2]): no NSD2 or IKZF3 degradation was detected
IKZF3 protein level after pretreatment (IKZF3 [3]; [14]): successfully restored the IKZF3 protein level
IKZF3 protein level after pretreatment (IKZF3 [3]; [15]): successfully restored the IKZF3 protein level
IKZF3 degradation (IKZF3 [3]; [13]): clear degradation of NSD2 and IKZF3 was observed
IKZF3 degradation (IKZF3 [4]): no NSD2 or IKZF3 degradation was detected
GSPT1 degradation (GSPT1 [7]): did not degrade GSPT1
GSPT1 degradation (GSPT1 [8]): did not degrade GSPT1
IKZF1 degradation after pretreatment (IKZF1 [9]; [14]): at least partially rescued the IKZF1 and IKZF3 degradation
IKZF1 degradation after pretreatment (IKZF1 [9]; [15]): at least partially rescued the IKZF1 and IKZF3 degradation
IKZF3 degradation after pretreatment (IKZF3 [11]; [14]): at least partially rescued the IKZF1 and IKZF3 degradation
IKZF3 degradation after pretreatment (IKZF3 [11]; [15]): at least partially rescued the IKZF1 and IKZF3 degradation
Inhibition of 20 methyltransferases (selectivity) [12]: did not inhibit any of the 20 methyltransferases
Cell growth inhibition (KMS11 cells): effectively inhibited the growth
Cell growth inhibition (H929 cells): effectively inhibited the growth
tolerability (Mouse PK study; PK study): well tolerated
